# Assays:
# [1] = biological target: Phosphatidylinositol 4,5-bisphosphate 3-kinase catalytic subunit alpha isoform (Homo sapiens, UniProt P42336); assay: Inhibition of PI3Kalpha (unknown origin)
# Histone deacetylase = assay: Inhibition of HDAC (unknown origin); format: protein assay, Homo sapiens
# HCT-116 = assay: Cytotoxicity against human HCT-116 cells; format: functional, cell-based
# K562 [2] = assay: Cytotoxicity against human K562 cells; format: functional, cell-based
# HuT78 = assay: Cytotoxicity against human HuT78 cells; format: functional, cell-based
# [3] = Cytotoxicity against rat C6 cells assessed as reduction in cell viability incubated for 48 hrs by MTT assay; format: toxicity, cell-based
# [4] = biological target: T1, Adrenergic receptor alpha-1 (Homo sapiens, UniProt P35348+P25100+P35368); assay: Antagonist activity at Adrenergic alpha-1 receptor (unknown origin); format: functional
# T1 sequence (P35348 whole entry): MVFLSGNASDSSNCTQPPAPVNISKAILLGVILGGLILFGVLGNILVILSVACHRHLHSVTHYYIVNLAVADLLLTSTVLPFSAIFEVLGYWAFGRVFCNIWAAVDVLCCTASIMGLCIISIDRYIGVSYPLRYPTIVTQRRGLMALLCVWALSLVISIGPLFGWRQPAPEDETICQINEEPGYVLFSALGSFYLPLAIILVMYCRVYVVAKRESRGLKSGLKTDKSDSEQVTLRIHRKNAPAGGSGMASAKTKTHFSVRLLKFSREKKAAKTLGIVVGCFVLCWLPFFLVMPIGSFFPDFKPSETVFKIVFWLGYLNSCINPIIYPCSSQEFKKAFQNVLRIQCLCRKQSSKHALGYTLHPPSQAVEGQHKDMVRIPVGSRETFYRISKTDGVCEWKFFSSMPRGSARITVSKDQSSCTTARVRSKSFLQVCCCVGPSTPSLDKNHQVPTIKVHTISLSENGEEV
# T1 sequence (P25100 whole entry): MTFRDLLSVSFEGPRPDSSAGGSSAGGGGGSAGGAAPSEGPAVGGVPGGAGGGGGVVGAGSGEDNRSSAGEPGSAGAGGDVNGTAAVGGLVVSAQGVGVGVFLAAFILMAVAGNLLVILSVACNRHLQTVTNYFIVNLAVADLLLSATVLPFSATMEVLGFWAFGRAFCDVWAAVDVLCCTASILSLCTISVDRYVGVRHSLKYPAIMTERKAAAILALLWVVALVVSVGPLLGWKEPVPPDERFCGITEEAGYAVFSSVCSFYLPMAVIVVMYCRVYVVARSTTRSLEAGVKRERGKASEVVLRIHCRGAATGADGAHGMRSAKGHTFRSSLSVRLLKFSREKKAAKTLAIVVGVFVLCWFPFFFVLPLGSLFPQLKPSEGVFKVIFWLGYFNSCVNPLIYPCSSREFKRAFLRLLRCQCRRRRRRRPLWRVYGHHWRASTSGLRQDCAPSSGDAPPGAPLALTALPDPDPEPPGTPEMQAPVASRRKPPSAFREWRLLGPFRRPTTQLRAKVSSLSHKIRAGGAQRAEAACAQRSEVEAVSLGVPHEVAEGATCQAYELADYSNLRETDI
# T1 sequence (P35368 whole entry): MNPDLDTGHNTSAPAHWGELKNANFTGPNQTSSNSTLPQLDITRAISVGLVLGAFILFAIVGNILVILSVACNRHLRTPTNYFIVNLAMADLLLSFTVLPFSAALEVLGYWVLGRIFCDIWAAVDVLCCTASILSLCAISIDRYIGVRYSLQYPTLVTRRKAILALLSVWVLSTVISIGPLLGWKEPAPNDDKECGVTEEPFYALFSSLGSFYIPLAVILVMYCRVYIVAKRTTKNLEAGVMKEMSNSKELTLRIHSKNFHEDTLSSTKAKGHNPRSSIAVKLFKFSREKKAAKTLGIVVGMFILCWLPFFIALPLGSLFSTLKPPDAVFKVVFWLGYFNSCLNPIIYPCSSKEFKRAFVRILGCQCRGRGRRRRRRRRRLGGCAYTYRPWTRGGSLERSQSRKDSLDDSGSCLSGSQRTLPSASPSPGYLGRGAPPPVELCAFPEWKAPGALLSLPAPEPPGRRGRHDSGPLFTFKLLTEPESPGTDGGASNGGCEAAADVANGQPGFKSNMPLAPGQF
# Proline--tRNA ligase = biological target: T2, Proline--tRNA ligase (Plasmodium falciparum (isolate 3D7), UniProt Q8I5R7); assay: Inhibition of Plasmodium falciparum 3D7 Prolyl-tRNA synthetase
# T2 sequence (Q8I5R7 whole entry): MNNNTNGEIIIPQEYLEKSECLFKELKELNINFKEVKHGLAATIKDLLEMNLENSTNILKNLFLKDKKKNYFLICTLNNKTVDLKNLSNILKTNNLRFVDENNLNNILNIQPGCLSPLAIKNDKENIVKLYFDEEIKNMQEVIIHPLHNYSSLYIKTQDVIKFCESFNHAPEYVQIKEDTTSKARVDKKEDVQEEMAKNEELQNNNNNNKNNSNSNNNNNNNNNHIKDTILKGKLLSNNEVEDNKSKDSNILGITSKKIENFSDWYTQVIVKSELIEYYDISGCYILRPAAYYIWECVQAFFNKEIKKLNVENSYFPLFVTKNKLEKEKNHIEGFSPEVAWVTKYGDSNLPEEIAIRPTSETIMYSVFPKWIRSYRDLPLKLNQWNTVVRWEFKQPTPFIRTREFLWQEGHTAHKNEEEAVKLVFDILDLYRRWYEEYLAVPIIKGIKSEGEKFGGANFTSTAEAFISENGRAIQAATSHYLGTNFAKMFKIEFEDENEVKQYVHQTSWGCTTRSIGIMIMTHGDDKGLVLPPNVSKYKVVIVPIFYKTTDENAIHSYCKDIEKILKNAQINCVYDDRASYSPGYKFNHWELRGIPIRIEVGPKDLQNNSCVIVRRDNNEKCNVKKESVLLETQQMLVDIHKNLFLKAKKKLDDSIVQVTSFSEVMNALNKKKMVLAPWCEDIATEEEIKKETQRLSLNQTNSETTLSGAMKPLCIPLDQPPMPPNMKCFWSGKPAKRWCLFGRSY
# [5] = Inhibition of COX (unknown origin); parameters: species or system Homo sapiens
# HepG2 [6] = assay: Cytotoxicity against human HepG2 cells assessed as growth inhibition by MTT assay; format: functional, cell-based
# [7] = biological target: Phosphatidylinositol 4,5-bisphosphate 3-kinase catalytic subunit gamma isoform (Homo sapiens, UniProt P48736); assay: Inhibition of PI3Kgamma (unknown origin)
# [8] = biological target: Vascular endothelial growth factor receptor 2 (Homo sapiens, UniProt P35968); assay: Inhibition of VEGFR-2 (unknown origin) using poly(Glu:Tyr)(4:1) and ATP as substrate by incubated for 1 hr by spectrophotometric based ELISA
# [9] = Cytotoxicity against human HUVEC cells assessed as cell growth inhibition incubated for 72 hrs by SRB assay; format: toxicity, cell-based
# [10] = Inhibition of PI3K (unknown origin) by ADP-Glo assay; parameters: species or system Homo sapiens
# [11] = Inhibition of PDE2 (unknown origin); parameters: species or system Homo sapiens
# [12] = biological target: Epidermal growth factor receptor (Homo sapiens, UniProt P00533); assay: Inhibition of EGFR (unknown origin)
# HepG2 [13] = assay: Cytotoxicity against human HepG2 cells assessed as cell growth inhibition incubated for 72 hrs by MTT assay; format: functional, cell-based; conditions: HepG2, 72 h
# K562 [14] = assay: Cytotoxicity against human K562 cells assessed as cell growth inhibition incubated for 72 hrs by MTT assay; format: functional, cell-based; conditions: K562, 72 h
# KB = assay: Cytotoxicity against human KB cells assessed as cell growth inhibition incubated for 72 hrs by MTT assay; format: functional, cell-based
# HCT-8 = assay: Cytotoxicity against human HCT-8 cells assessed as cell growth inhibition incubated for 72 hrs by MTT assay; format: functional, cell-based; conditions: HCT-8, 72 h
# MDA-MB-231 = assay: Cytotoxicity against human MDA-MB-231 cells assessed as cell growth inhibition incubated for 72 hrs by MTT assay; format: functional, cell-based; conditions: MDA-MB-231, 72 h
# Tubulin = assay: Inhibition of tubulin polymerization (unknown origin) incubated for 30 mins in presence of GTP by spectrophotometric analysis; format: protein-complex assay, Homo sapiens
# Homo sapiens = species on record: Homo sapiens; assay: Activation of GABA receptor (unknown origin); conditions: filed as activator
# MOLM-13 = assay: Cytotoxicity against human MOLM-13 cells assessed as cell growth inhibition incubated for 72 hrs by MTS assay; format: functional, cell-based; conditions: MOLM-13, 72 h
# MV4-11 = assay: Cytotoxicity against human MV4-11 cells assessed as cell growth inhibition incubated for 72 hrs by MTS assay; format: functional, cell-based; conditions: MV4-11, 72 h
# [15] = biological target: Sterol 14-alpha demethylase (Trypanosoma cruzi (strain CL Brener), UniProt Q7Z1V1); assay: Inhibition of Trypanosoma cruzi Sterol 14-alpha demethylase
# Sterol 14-alpha demethylase, sequence (Q7Z1V1 whole entry): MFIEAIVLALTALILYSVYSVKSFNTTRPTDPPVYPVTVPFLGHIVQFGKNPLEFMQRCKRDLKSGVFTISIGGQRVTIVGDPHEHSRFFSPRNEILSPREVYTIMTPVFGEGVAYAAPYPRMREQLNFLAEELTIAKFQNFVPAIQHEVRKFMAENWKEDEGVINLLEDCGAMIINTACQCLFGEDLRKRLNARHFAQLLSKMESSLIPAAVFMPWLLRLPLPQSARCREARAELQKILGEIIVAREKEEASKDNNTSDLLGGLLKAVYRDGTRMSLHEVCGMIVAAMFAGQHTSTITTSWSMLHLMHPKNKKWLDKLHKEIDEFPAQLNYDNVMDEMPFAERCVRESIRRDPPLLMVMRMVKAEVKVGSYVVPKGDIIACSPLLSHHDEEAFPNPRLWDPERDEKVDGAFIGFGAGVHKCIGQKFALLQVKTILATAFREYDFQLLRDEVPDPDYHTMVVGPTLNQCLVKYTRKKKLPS
# Epidermal growth factor receptor, sequence (P00533 whole entry): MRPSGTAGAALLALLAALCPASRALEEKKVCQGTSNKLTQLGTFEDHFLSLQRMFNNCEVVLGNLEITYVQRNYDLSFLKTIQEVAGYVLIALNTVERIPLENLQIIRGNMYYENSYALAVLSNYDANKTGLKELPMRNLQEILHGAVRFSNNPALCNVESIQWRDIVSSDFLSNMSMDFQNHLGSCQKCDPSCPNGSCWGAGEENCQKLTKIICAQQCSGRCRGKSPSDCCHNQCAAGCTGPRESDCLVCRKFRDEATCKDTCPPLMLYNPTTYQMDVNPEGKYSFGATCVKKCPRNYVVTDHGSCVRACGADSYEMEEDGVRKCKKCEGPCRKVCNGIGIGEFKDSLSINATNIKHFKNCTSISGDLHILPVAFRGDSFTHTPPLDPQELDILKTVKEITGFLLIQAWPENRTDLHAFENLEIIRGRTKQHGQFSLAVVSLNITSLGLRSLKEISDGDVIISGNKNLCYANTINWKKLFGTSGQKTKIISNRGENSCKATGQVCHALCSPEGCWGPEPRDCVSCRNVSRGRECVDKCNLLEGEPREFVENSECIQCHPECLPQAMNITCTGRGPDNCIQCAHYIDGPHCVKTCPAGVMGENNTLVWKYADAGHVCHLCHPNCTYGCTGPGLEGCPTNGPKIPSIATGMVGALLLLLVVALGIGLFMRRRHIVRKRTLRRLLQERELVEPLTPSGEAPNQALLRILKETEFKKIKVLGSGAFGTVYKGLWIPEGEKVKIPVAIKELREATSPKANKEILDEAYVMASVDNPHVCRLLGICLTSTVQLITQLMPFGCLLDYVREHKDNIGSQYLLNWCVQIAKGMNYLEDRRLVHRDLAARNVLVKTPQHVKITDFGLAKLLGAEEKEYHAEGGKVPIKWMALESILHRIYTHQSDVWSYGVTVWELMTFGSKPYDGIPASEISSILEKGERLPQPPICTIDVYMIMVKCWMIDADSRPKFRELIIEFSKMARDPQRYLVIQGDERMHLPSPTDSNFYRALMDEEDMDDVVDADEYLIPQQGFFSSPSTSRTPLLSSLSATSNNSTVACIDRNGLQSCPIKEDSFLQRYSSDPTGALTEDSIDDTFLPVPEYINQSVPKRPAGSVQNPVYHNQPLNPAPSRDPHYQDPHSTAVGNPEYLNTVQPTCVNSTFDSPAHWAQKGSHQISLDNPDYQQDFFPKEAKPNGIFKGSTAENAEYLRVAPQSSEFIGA
# Phosphatidylinositol 4,5-bisphosphate 3-kinase catalytic subunit alpha isoform, sequence (P42336 whole entry, canonical isoform): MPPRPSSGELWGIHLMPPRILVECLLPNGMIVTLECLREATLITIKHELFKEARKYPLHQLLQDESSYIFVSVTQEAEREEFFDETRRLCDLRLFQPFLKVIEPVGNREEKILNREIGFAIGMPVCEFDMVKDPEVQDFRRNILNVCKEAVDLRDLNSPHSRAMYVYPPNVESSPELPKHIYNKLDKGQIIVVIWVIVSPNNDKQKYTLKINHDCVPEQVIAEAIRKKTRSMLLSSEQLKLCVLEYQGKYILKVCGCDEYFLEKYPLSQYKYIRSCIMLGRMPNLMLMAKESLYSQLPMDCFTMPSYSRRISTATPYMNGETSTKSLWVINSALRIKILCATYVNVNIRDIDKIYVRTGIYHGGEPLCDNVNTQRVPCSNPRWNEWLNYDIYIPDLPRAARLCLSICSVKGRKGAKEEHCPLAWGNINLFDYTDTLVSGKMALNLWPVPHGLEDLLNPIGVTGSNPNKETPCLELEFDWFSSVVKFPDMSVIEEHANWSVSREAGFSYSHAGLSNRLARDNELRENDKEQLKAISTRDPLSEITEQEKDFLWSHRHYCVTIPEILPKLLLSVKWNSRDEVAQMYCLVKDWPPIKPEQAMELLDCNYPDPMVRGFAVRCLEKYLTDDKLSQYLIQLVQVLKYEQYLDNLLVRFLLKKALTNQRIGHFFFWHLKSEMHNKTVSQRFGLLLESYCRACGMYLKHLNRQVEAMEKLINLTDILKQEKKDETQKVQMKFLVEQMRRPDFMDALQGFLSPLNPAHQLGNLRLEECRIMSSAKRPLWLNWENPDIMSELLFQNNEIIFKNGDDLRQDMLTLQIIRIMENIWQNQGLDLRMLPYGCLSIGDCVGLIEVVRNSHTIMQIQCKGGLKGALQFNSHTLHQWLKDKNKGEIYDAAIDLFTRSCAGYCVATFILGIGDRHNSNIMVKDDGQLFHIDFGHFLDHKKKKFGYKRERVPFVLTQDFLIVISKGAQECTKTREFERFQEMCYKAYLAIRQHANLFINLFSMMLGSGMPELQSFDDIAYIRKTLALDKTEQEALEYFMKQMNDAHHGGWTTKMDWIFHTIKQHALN
# Phosphatidylinositol 4,5-bisphosphate 3-kinase catalytic subunit gamma isoform, sequence (P48736 whole entry, canonical isoform): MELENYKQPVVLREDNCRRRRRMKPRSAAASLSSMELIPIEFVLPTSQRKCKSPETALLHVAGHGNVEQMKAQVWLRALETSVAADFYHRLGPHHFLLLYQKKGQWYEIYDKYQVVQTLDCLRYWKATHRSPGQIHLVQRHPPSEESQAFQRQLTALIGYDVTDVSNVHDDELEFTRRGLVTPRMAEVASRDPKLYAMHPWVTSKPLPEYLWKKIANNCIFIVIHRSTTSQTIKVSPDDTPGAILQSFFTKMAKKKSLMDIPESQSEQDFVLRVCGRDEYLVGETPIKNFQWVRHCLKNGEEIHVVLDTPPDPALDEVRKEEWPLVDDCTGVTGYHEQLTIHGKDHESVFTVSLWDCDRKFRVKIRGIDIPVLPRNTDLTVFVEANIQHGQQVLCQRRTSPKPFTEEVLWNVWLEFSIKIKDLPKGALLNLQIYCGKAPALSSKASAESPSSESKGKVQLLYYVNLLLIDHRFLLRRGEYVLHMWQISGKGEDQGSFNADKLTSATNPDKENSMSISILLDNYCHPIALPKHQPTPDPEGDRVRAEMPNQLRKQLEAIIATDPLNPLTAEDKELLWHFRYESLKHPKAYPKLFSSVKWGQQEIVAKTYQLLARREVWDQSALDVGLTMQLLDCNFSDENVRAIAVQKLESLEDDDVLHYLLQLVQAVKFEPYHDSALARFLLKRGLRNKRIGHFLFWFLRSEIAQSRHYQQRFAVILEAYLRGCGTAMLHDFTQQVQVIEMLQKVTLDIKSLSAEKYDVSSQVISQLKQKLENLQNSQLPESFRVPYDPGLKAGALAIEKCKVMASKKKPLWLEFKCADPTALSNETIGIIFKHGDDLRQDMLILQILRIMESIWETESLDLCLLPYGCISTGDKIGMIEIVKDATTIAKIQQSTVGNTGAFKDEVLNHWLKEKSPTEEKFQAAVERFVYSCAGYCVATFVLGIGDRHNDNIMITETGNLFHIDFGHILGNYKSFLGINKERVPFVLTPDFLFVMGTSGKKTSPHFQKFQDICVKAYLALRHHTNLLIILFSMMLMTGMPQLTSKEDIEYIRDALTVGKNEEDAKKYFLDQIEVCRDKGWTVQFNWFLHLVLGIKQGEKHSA
smiles,measurement,setting,value
O=C(CCCCCOc1ccc2c(c1)N=C(NC(=O)c1ccccc1)N1CCN=C21)NO,IC50,[1],2.98 nM
same,IC50,Histone deacetylase,50 nM
same,IC50,HCT-116,330 nM
same,IC50,K562 [2],95 nM
same,IC50,HuT78,62 nM
OC1Nc2ccccc2-c2cc(-c3ccc(Cl)cc3)nn21 (centres undefined),IC50 at 48 h,[3],3.86 µM
CCCC(=O)N1CCCN(c2nc(N)c3cc(OC)c(OC)cc3n2)CC1 [BUNAZOSIN],IC50,[4],1.22 nM
O=C(C[C@H]1NCCC[C@@H]1O)Cn1cnc2ccccc2c1=O,EC50,Proline--tRNA ligase,4 nM
COc1cc2nc(N3CCN(C(=O)c4ccco4)CC3)nc(N)c2cc1OC [PRAZOSIN],IC50,[5],1900 nM
COc1cccc2c1C(=O)c1c(O)c3c(c(O)c1C2=O)C[C@@](O)(C(=O)CO)C[C@@H]3O[C@H]1C[C@H](N)[C@H](O)[C@H](C)O1 [DOXORUBICIN],IC50,HepG2 [6],60.3 µM
NC(=O)c1cc(-c2ccc3ncnc(-c4cccc(C(=O)NCCN5CCOCC5)c4)c3c2)ccc1Cl,IC50,[7],17 nM
COc1cc2ncnc(-n3ncc4cc(NC(=O)Nc5ccc(C)c(Cl)c5)ccc43)c2cc1OC,IC50,[8],12 nM
same,IC50 at 72 h,[9],1800 nM
COc1cc(C2Sc3ccccc3C(=O)N2NC(=O)c2ccc(-n3c(-c4ccncc4)nc4ccccc4c3=O)cc2)ccc1O (centres undefined),IC50,HepG2 [6],60.3 µM
same,IC50,[10],31.9 µM
COc1cc([C@@H]2c3cc4c(cc3[C@@H](O[C@@H]3O[C@@H]5CO[C@@H](C)O[C@H]5[C@H](O)[C@H]3O)[C@H]3COC(=O)[C@H]23)OCO4)cc(OC)c1O [ETOPOSIDE],IC50 at 48 h,[3],4.32 µM
O=C1CN2Cc3c(ccc(Cl)c3Cl)N=C2N1 [ANAGRELIDE],IC50,[11],26 nM
Cc1ccc2c(-c3ccccc3)nc(=O)n(C(C)C)c2c1 [PROQUAZONE],IC50,[12],2 nM
COc1ccc(N(C)c2nc(NCc3cccnc3)nc3ccccc23)cc1,IC50,HepG2 [13],110 nM
same,IC50,K562 [14],110 nM
same,IC50,KB,110 nM
same,IC50,HCT-8,110 nM
same,IC50,MDA-MB-231,110 nM
same,IC50,Tubulin,2450 nM
Cc1ccccc1-n1c(C)nc2ccccc2c1=O,ED50,Homo sapiens,400 µmol/kg
CN(C)CCCOc1ccc2c(NCCc3cnc(NC(=O)Nc4cccc(Cl)c4)s3)ncnc2c1,EC50,MOLM-13,5 nM
same,EC50,MV4-11,5 nM
O=c1cc(N2CCOCC2)oc2c(-c3ccccc3)cccc12 [LY-294002],IC50,[10],57.3 µM
C[C@@H](n1cnc2cc(Cl)ccc2c1=O)[C@](O)(Cn1cncn1)c1ccc(F)cc1F [ALBACONAZOLE],IC50,[15],1 nM
